According to patent publication US20100190713A1, “USE OF THE PEPTIDE THYMOSIN BETA 4 ALONE OR IN COMBINATION WITH CECROPIN A AS A THERAPEUTIC AGENT” (priority 2007, published 2010):
Where no end group is shown, it is not given here.

Tests used:
[1] = test system: hepatitis B virus (HBV) ayw strain; assay: HBV experimental assay system, HepG2-2.2.15, secreted HBV DNA by TaqMan PCR; type: cell-based; conditions: 10 micrograms per ml; HepG2-2.2.15, six days
[2] = test system: RAW 264.7 (Mouse leukaemic monocyte macrophage cell line) cells; assay: Phagocytosis assay (Fluorescein-labeled Escherichia coli, flow cytometry); type: cell-based; conditions: 10 micrograms per ml
Procedure: RAW 264.7 (Mouse leukaemic monocyte macrophage cell line) cells were obtained from ATCC and grown in RPMI 1640 medium containing 10% FBS. Cells were incubated in 12×75 mm tubes at 37° C. with test peptides—10 micrograms per ml—for 30 min prior to adding Fluorescein-labeled Escherichia coli bacteria as the agent to be ingested. After the cells were incubated for additional 60 min at 37° C. and allowed to ingest the Fluorescein-labeled Escherichia coli bacteria, cells were fixed with 1% paraformaldehyde. The samples were then analyzed by flow cytometry to determine the amount of phagocytosis as a function of brightness (the greater the phagocytic activity, the more fluorescence in the macrophage population). Data are reported as % positive and the mean fluorescence intensity (MFI) of positively stained cells.

[3] = test system: murine spleen cells; assay: Th1/Th2 cytokine profiling assay (Ovalbumin-restimulated spleen cells, CBA kit); type: cell-based, Balb/c mice; conditions: 10 micrograms per ml, 72 hours
[4] = test system: HCMV strain AD169; assay: HCMV plaque formation assay in MRC-5 cells; type: cell-based; conditions: 10 micrograms per ml, 7-10 days
Text: Ganciclovir was used as positive control.

[5] = test system: Primary Human endothelial cells (HUVEC); assay: Endothelial cell migration assay; type: cell-based; conditions: 10 micrograms per ml, 22 hours
Procedure: Thereafter, designated concentration of testing peptides—10 micrograms per ml—was added in duplicate wells.

[6] = test system: HUVEC; assay: Endothelial tube formation assay; type: cell-based, human; conditions: 10 micrograms per ml, 20 hours
Text: Positive control wes vehicle only.

Substance | inhibition of HBV replication as compared to the virus control infection [1] | induction of phagocytosis as compared to the virus control experiment [2] | production of IFN-γ (decreased by) [3] [%] | production of IL-2 (decreased by) [3] | production of IL-4 (induced by) [3] | production of IL-5 (decreased by) [3] | production of TNF-alpha (change) [3] | inhibition of HCMV plaque formation as compared to the virus control experiment [4] [%] | inhibition of the migration of human endothelial cells [5] [%] | inhibition of the tube formation of human endothelial cells [6] [%]
Ac-Ser-Asp-Lys-Pro-Asp-Met-Ala-Glu-Ile-Glu-Lys-Phe-Asp-Lys-Ser-Lys-Leu-Lys-Lys-Thr-Glu-Thr-Gln-Glu-Lys-Asn-Pro-Leu-Pro-Ser-Lys-Glu-Thr-Ile-Glu-Gln-Glu-Lys-Gln-Ala-Gly-Glu-Ser-OH (SDKPDMAEIEKFDKSKLKKTETQEKNPLPSKETIEQEKQAGES; printed: Ser-Asp-Lys-Pro-Asp-Met-Ala-Glu-Ile-Glu-Lys-Phe-Asp-Lys-Ser-Lys-Leu-Lys-Lys-Thr-Glu-Thr-Gln-Glu-Lys-Asn-Pro-Leu-Pro-Ser-Lys-Glu-Thr-Ile-Glu-Gln-Glu-Lys-Gln-Ala-Gly-Glu-Ser-) [Peptide 1] | no effect | 45.7% | 52.7 | did not significantly change | 31.6% | did not significantly change | did not significantly change |  |  | 
Lys-Trp-Lys-Leu-Phe-Lys-Lys-Ile-Glu-Lys-Val-Gly-Gln-Asn-Ile-Arg-Asp-Gly-Ile-Ile-Lys-Ala-Gly-Pro-Ala-Val-Ala-Val-Val-Gly-Gln-Ala-Thr-Gln-Ile-Ala-Lys-NH2 (KWKLFKKIEKVGQNIRDGIIKAGPAVAVVGQATQIAK-NH2) [Peptide 2] | 10.5% | did not induce phagocytosis | 65.6 | 42.7% | did not significantly change | 37.0% | did not significantly change | 2.1 | 15 | 10
